Results as given in ChEMBL document CHEMBL3885881, “DrugMatrix”.

Species on record: Rattus norvegicus
Assay: DrugMatrix - Regimen: Daily Repeat
Type: toxicity, organism-based, Sprague-Dawley
Design: regimen Daily Repeat, gender Male, age 6-8 weeks
Conditions: in vivo, po, route oral GAVAGE, […]; for ABSOLUTE BASOPHIL / ABSOLUTE EOSINOPHIL / ABSOLUTE LYMPHOCYTE / ABSOLUTE MONOCYTE / ABSOLUTE SEGMENTED NEUTROPHIL / BASOPHIL / EOSINOPHIL / ERYTHROCYTE COUNT / HEMATOCRIT / HEMOGLOBIN / LEUKOCYTE COUNT / LYMPHOCYTE / MEAN CORPUSCULAR HEMOGLOBIN / MEAN CORPUSCULAR HEMOGLOBIN CONCENTRATION / MEAN CORPUSCULAR VOLUME / MONOCYTE / NEUTROPHIL / NUCLEATED RED BLOOD CELLS / PLATELET COUNT: tissue Blood; for ALANINE AMINOTRANSFERASE / ALBUMIN / ALKALINE PHOSPHATASE / ASPARTATE AMINOTRANSFERASE / BLOOD UREA NITROGEN / CARBON DIOXIDE / CHLORIDE / CHOLESTEROL / CREATINE PHOSPHOKINASE / CREATININE / GLUCOSE / LACTATE DEHYDROGENASE / LIPASE / PHOSPHORUS / POTASSIUM / SODIUM / TOTAL BILIRUBIN / TOTAL PROTEIN / URIC ACID: tissue Plasma
[1] = 0 mg/kg, 72 h, dose level Control, time 3 day
[2] = 0 mg/kg, 120 h, dose level Control, time 5 day
[3] = 5 mg/kg, 72 h, dose level Low, time 3 day

Structure (SMILES): O=c1oc2ccccc2c(O)c1Cc1c(O)c2ccccc2oc1=O [DICUMAROL]
- ABSOLUTE BASOPHIL [1]: 0 CELLS/uL
- ABSOLUTE EOSINOPHIL [1]: 0 CELLS/uL
- ABSOLUTE LYMPHOCYTE [1]: 9244.83 CELLS/uL
- ABSOLUTE MONOCYTE [1]: 102 CELLS/uL
- ABSOLUTE SEGMENTED NEUTROPHIL [1]: 869.83 CELLS/uL
- BASOPHIL [1]: 0%
- EOSINOPHIL [1]: 0%
- ERYTHROCYTE COUNT [1]: 5.43 x10E6/uL
- HEMATOCRIT [1]: 34.03%
- HEMOGLOBIN [1]: 13.27 G/DL
- LEUKOCYTE COUNT [1]: 10.22 x10E3/uL
- LYMPHOCYTE [1]: 90.33%
- MEAN CORPUSCULAR HEMOGLOBIN [1]: 24.48 pg
- MEAN CORPUSCULAR HEMOGLOBIN CONCENTRATION [1]: 39.03 G/DL
- MEAN CORPUSCULAR VOLUME [1]: 62.75 fL
- MONOCYTE [1]: 1%
- NEUTROPHIL [1]: 8.67%
- NUCLEATED RED BLOOD CELLS [1]: 0.17 /100WBC
- PLATELET COUNT [1]: 989 x10E3/uL
- ALANINE AMINOTRANSFERASE [1]: 77 u/L
- ALBUMIN [1]: 3.97 G/DL
- ALKALINE PHOSPHATASE [1]: 464.83 u/L
- ASPARTATE AMINOTRANSFERASE [1]: 89.83 u/L
- BLOOD UREA NITROGEN [1]: 12.17 mg/dL
- CARBON DIOXIDE [1]: 34.17 mmol/L
- CHLORIDE [1]: 98.33 MEQ/L
- CHOLESTEROL [1]: 75.17 mg/dL
- CREATINE PHOSPHOKINASE [1]: 367.67 u/L
- CREATININE [1]: 0.16 mg/dL
- GLUCOSE [1]: 142.67 mg/dL
- LACTATE DEHYDROGENASE [1]: 139.33 u/L
- LIPASE [1]: 9.5 u/L
- PHOSPHORUS [1]: 10.85 mg/dL
- POTASSIUM [1]: 6.38 MEQ/L
- SODIUM [1]: 143.2 MEQ/L
- TOTAL BILIRUBIN [1]: 0.2 mg/dL
- TOTAL PROTEIN [1]: 5.77 G/DL
- URIC ACID [1]: 0.7 mg/dL
- ABSOLUTE BASOPHIL [2]: 0 CELLS/uL
- ABSOLUTE EOSINOPHIL [2]: 0 CELLS/uL
- ABSOLUTE LYMPHOCYTE [2]: 8295.33 CELLS/uL
- ABSOLUTE MONOCYTE [2]: 84.67 CELLS/uL
- ABSOLUTE SEGMENTED NEUTROPHIL [2]: 970 CELLS/uL
- BASOPHIL [2]: 0%
- EOSINOPHIL [2]: 0%
- ERYTHROCYTE COUNT [2]: 5.74 x10E6/uL
- HEMATOCRIT [2]: 36.22%
- HEMOGLOBIN [2]: 13.85 G/DL
- LEUKOCYTE COUNT [2]: 9.35 x10E3/uL
- LYMPHOCYTE [2]: 88.67%
- MEAN CORPUSCULAR HEMOGLOBIN [2]: 24.13 pg
- MEAN CORPUSCULAR HEMOGLOBIN CONCENTRATION [2]: 38.25 G/DL
- MEAN CORPUSCULAR VOLUME [2]: 63.08 fL
- MONOCYTE [2]: 1%
- NEUTROPHIL [2]: 10.33%
- NUCLEATED RED BLOOD CELLS [2]: 0.17 /100WBC
- PLATELET COUNT [2]: 883.83 x10E3/uL
- ALANINE AMINOTRANSFERASE [2]: 64.5 u/L
- ALBUMIN [2]: 4.12 G/DL
- ALKALINE PHOSPHATASE [2]: 425.67 u/L
- ASPARTATE AMINOTRANSFERASE [2]: 88.5 u/L
- BLOOD UREA NITROGEN [2]: 14.17 mg/dL
- CARBON DIOXIDE [2]: 30.5 mmol/L
- CHLORIDE [2]: 100.33 MEQ/L
- CHOLESTEROL [2]: 55.33 mg/dL
- CREATINE PHOSPHOKINASE [2]: 287.17 u/L
- CREATININE [2]: 0.2 mg/dL
- GLUCOSE [2]: 162.83 mg/dL
- LACTATE DEHYDROGENASE [2]: 111.33 u/L
- LIPASE [2]: 10.5 u/L
- PHOSPHORUS [2]: 10.32 mg/dL
- POTASSIUM [2]: 5.13 MEQ/L
- SODIUM [2]: 143.93 MEQ/L
- TOTAL BILIRUBIN [2]: 0.17 mg/dL
- TOTAL PROTEIN [2]: 5.9 G/DL
- URIC ACID [2]: 0.77 mg/dL
- ABSOLUTE BASOPHIL [3]: 0 CELLS/uL
- ABSOLUTE EOSINOPHIL [3]: 0 CELLS/uL
- ABSOLUTE LYMPHOCYTE [3]: 11414.33 CELLS/uL
- ABSOLUTE MONOCYTE [3]: 52 CELLS/uL
- ABSOLUTE SEGMENTED NEUTROPHIL [3]: 1133.67 CELLS/uL
- BASOPHIL [3]: 0%
- EOSINOPHIL [3]: 0%
- ERYTHROCYTE COUNT [3]: 5.32 x10E6/uL
- HEMATOCRIT [3]: 33.6%
- HEMOGLOBIN [3]: 13.17 G/DL
- LEUKOCYTE COUNT [3]: 12.6 x10E3/uL
- LYMPHOCYTE [3]: 91%
- MEAN CORPUSCULAR HEMOGLOBIN [3]: 24.8 pg
- MEAN CORPUSCULAR HEMOGLOBIN CONCENTRATION [3]: 39.2 G/DL
- MEAN CORPUSCULAR VOLUME [3]: 63.37 fL
- MONOCYTE [3]: 0.33%
- NEUTROPHIL [3]: 8.67%
- NUCLEATED RED BLOOD CELLS [3]: 0 /100WBC
- PLATELET COUNT [3]: 1057.33 x10E3/uL
- ALANINE AMINOTRANSFERASE [3]: 67.67 u/L
- ALBUMIN [3]: 4.03 G/DL
- ALKALINE PHOSPHATASE [3]: 399.67 u/L
- ASPARTATE AMINOTRANSFERASE [3]: 91 u/L
- BLOOD UREA NITROGEN [3]: 10.33 mg/dL
- CARBON DIOXIDE [3]: 32.67 mmol/L
- CHLORIDE [3]: 99 MEQ/L
- CHOLESTEROL [3]: 74 mg/dL
- CREATINE PHOSPHOKINASE [3]: 353.33 u/L
- CREATININE [3]: 0.24 mg/dL
- GLUCOSE [3]: 146 mg/dL
- LACTATE DEHYDROGENASE [3]: 177 u/L
- LIPASE [3]: 9 u/L
- PHOSPHORUS [3]: 11.23 mg/dL
- POTASSIUM [3]: 6.24 MEQ/L
- SODIUM [3]: 143.6 MEQ/L
- TOTAL BILIRUBIN [3]: 0.17 mg/dL
- TOTAL PROTEIN [3]: 5.7 G/DL
- URIC ACID [3]: 0.6 mg/dL
